Source: ChEMBL document CHEMBL4295262, “Evaluation of the utility of stem-cell derived cardiomyocytes for drug proarrhythmic potential” (2019)
Values belong to the compound of their own block, whether it stands above or below them.

Legend:
Conditions in all cases: human, ipsc-cm
[1] = (§1) Electrical activity assay on cell lines treated with a given drug. DMSO was used as a vehicle and a control, unblinded dofetilide was used as a control.
[2] = as §1; assay type: cell-based; set-up: APDc: unit not given here
[3] = as §1; assay type: ADME, cell-based; set-up: FPDc: unit not given here
[4] = as §1; remark: listed apart in the source
[5] = 0.09507 µM, concentration (um) 0.0950736 uM
[6] = 0.3004 µM, concentration (um) 0.300433 uM
[7] = 0.9494 µM, concentration (um) 0.949367 uM
[8] = 0.003169 µM, concentration (um) 0.00316912 uM
[9] = 0.01001 µM, concentration (um) 0.0100144 uM
[10] = 0.03165 µM, concentration (um) 0.0316456 uM
[11] = 0.1 µM, concentration (um) 0.1 uM
[12] = 10 µM, concentration (um) 10 uM
[13] = 100 µM, concentration (um) 100 uM
[14] = 0.01 µM, concentration (um) 0.01 uM

FPD measurement ([1]; 0.09507 µM): 53.9 FPDc
FPDc ([1]; 0.09507 µM): 53.9
FPD measurement ([1]; 0.3004 µM): 52.05 FPDc
FPDc ([1]; 0.3004 µM): 52.05
FPD measurement ([1]; 0.9494 µM): 50.49 FPDc
FPDc ([1]; 0.9494 µM): 50.49
FPD measurement ([1]; 3 µM): 44.91 FPDc
FPDc ([1]; 3 µM): 44.91
APDc [2, 5]: 69.32
FPD measurement [2, 5]: 69.32 FPDc
APDc [2, 6]: 63.65
FPD measurement [2, 6]: 63.65 FPDc
APDc [2, 7]: 55.94
FPD measurement [2, 7]: 55.94 FPDc
APDc ([2]; 3 µM, concentration (um) 3 uM): 58.51
FPD measurement ([2]; 3 µM, concentration (um) 3 uM): 58.51 FPDc
FPDc [3, 5]: 0.04224
FPDc [3, 6]: 0.04702
FPDc [3, 7]: 0.04411
Compound: CN(C)CCCN1c2ccccc2Sc2ccc(Cl)cc21 [CHLORPROMAZINE]
FPD measurement ([3]; 3 µM, concentration (um) 3 uM): More Than Half The Wells Had A Quiescence Event Or Fpdc Readings Of 0
FPDc ([3]; 3 µM, concentration (um) 3 uM): More Than Half The Wells Had A Quiescence Event Or Fpdc Readings Of 0

APDc [2, 8]: 60.87
FPD measurement [2, 8]: 60.87 FPDc
APDc [2, 9]: 62.7
FPD measurement [2, 9]: 62.7 FPDc
APDc [2, 10]: 58.7
FPD measurement [2, 10]: 58.7 FPDc
APDc [2, 11]: 92.05
FPD measurement [2, 11]: 92.05 FPDc
FPDc [3, 8]: 0.04125
FPDc [3, 9]: 0.03941
FPDc [3, 10]: 0.04671
FPDc [3, 11]: 0.04762
Compound: COc1cc(N)c(Cl)cc1C(=O)NC1CCN(CCCOc2ccc(F)cc2)CC1OC (stereo unspecified) [CISAPRIDE]
FPD measurement ([4]; 0.003169 µM): 1 Values Out Of 1 Were Excluded Due To Quiescence Or 0 Fpdc
FPDc ([4]; 0.003169 µM): 1 Values Out Of 1 Were Excluded Due To Quiescence Or 0 Fpdc
FPD measurement ([4]; 0.01001 µM): 1 Values Out Of 1 Were Excluded Due To Quiescence Or 0 Fpdc
FPDc ([4]; 0.01001 µM): 1 Values Out Of 1 Were Excluded Due To Quiescence Or 0 Fpdc
FPD measurement ([4]; 0.03165 µM): 1 Values Out Of 1 Were Excluded Due To Quiescence Or 0 Fpdc
FPDc ([4]; 0.03165 µM): 1 Values Out Of 1 Were Excluded Due To Quiescence Or 0 Fpdc
FPD measurement ([4]; 0.1 µM): 1 Values Out Of 1 Were Excluded Due To Quiescence Or 0 Fpdc
FPDc ([4]; 0.1 µM): 1 Values Out Of 1 Were Excluded Due To Quiescence Or 0 Fpdc

APDc [2, 11]: 48.18
FPD measurement [2, 11]: 48.18 FPDc
APDc ([2]; 1 µM, concentration (um) 1 uM): 53.12
FPD measurement ([2]; 1 µM, concentration (um) 1 uM): 53.12 FPDc
APDc [2, 12]: 61.24
FPD measurement [2, 12]: 61.24 FPDc
APDc [2, 13]: 79.49
FPD measurement [2, 13]: 79.49 FPDc
FPDc [3, 11]: 0.03502
FPDc ([3]; 1 µM, concentration (um) 1 uM): 0.03611
FPDc [3, 12]: 0.04288
FPDc [3, 13]: 0.03271
Compound: CC[C@H]1OC(=O)[C@H](C)[C@@H](O[C@H]2C[C@@](C)(OC)[C@@H](O)[C@H](C)O2)[C@H](C)[C@@H](O[C@@H]2O[C@H](C)C[C@H](N(C)C)[C@H]2O)[C@](C)(OC)C[C@@H](C)C(=O)[C@H](C)[C@@H](O)[C@]1(C)O [CLARITHROMYCIN]

FPD measurement ([1]; 0.01 µM): 53.63 FPDc
FPDc ([1]; 0.01 µM): 53.63
FPD measurement ([1]; 0.1 µM): 45.42 FPDc
FPDc ([1]; 0.1 µM): 45.42
FPD measurement ([1]; 1 µM): 28.2 FPDc
FPDc ([1]; 1 µM): 28.2
FPD measurement ([1]; 10 µM): 13.87 FPDc
FPDc ([1]; 10 µM): 13.87
APDc [2, 14]: 56.41
FPD measurement [2, 14]: 56.41 FPDc
APDc [2, 11]: 49.22
FPD measurement [2, 11]: 49.22 FPDc
APDc ([2]; 1 µM, concentration (um) 1 uM): 40.25
FPD measurement ([2]; 1 µM, concentration (um) 1 uM): 40.25 FPDc
APDc [2, 12]: 32.58
FPD measurement [2, 12]: 32.58 FPDc
FPDc [3, 14]: 0.0252
Compound: COc1ccc([C@@H]2Sc3ccccc3N(CCN(C)C)C(=O)[C@@H]2OC(C)=O)cc1 [DILTIAZEM]
FPD measurement [3, 11]: More Than Half The Wells Had A Quiescence Event Or Fpdc Readings Of 0
FPDc [3, 11]: More Than Half The Wells Had A Quiescence Event Or Fpdc Readings Of 0
FPD measurement ([3]; 1 µM, concentration (um) 1 uM): More Than Half The Wells Had A Quiescence Event Or Fpdc Readings Of 0
FPDc ([3]; 1 µM, concentration (um) 1 uM): More Than Half The Wells Had A Quiescence Event Or Fpdc Readings Of 0
FPD measurement [3, 12]: More Than Half The Wells Had A Quiescence Event Or Fpdc Readings Of 0
FPDc [3, 12]: More Than Half The Wells Had A Quiescence Event Or Fpdc Readings Of 0
